In PubChem BioAssay (NCI):
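Grown in 96-well plates, cells were treated for 48 hours with each compound at five concentrations. Insufficient inhibition: endpoint recorded as highest concentration tested. GI50 is the concentration that inhibits growth by half. Definition used: TGI = concentration required for complete inhibition of growth.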 Where a SMILES comes first, the peptide text is derived from it. [ ]: non-standard residue; d: D form. Phe(4-Cl) = N[CH](Cc1ccc(Cl)cc1)C(=O)O

How the values were obtained:
Assay in all cases: DTP human tumour cell line panel, 48 h
[1] = test system: 786-0 renal
[2] = test system: HCT-116 colon
[3] = test system: HCT-15 colon
[4] = test system: HL-60(TB) leukemia
[5] = test system: SF-268 CNS
[6] = test system: SF-539 CNS
[7] = test system: SK-OV-3 ovarian
[8] = test system: UO-31 renal
[9] = test system: HCC-2998 colon
[10] = test system: SK-MEL-5 melanoma

SMILES	GI50 [1]	TGI [1]	GI50 [2]	TGI [2]	GI50 [3]	TGI [3]	GI50 [4]	TGI [4]	GI50 [5]	TGI [5]	GI50 [6]	TGI [6]	GI50 [7]	TGI [7]	GI50 [8]	TGI [8]	GI50 [9]	TGI [9]	GI50 [10]	TGI [10]
CN(C)CCCn1c2c(c3ccccc3c1=O)C(=O)c1ccccc1-2	2.47 µM	14.2 µM	0.578 µM	4.34 µM	1.85 µM	12 µM	1.74 µM	3.85 µM	2.71 µM	15.2 µM	1.86 µM	9.14 µM	4.14 µM	73.8 µM	2.5 µM	23.5 µM	–	–	–	–
Nc1ncc(-c2cnn(CCO)c2)c2scc(-c3ccc(NC(=O)Nc4cccc(F)c4)cc3)c12	0.45 µM	6.69 µM	0.206 µM	3.18 µM	0.371 µM	14.3 µM	0.499 µM	5.09 µM	0.435 µM	9.73 µM	–	–	0.338 µM	3.99 µM	0.219 µM	1.98 µM	1.39 µM	6.79 µM	1.03 µM	2.35 µM
Nc1ccc(/C=C/c2ccnc3ccccc23)cc1	–	57.6 µM	–	42.4 µM	–	> 100 µM	–	23.8 µM	–	47.5 µM	–	47.9 µM	–	–	–	47.5 µM	–	57.7 µM	–	29.6 µM
Cc1ccc2nc3c(C(=O)NCCN(C)C)cccc3nc2c1	–	> 77.2 µM	–	12 µM	–	18 µM	–	> 100 µM	–	–	–	15.7 µM	–	> 56.3 µM	–	> 54.8 µM	–	32.3 µM	–	> 39.8 µM
CCN1C(=O)CNc2ncc(-c3ccc(-c4ncn[nH]4)nc3C)nc21	0.117 µM	4.35 µM	0.277 µM	4.62 µM	0.202 µM	10.9 µM	–	–	0.235 µM	10.2 µM	0.144 µM	0.859 µM	0.102 µM	0.617 µM	0.0248 µM	0.599 µM	0.338 µM	12.4 µM	0.0864 µM	0.792 µM
Cc1ccc(/C(=C/C=C(C#N)C#N)Sc2ccc(Cl)cc2)cc1	1.9 µM	4.57 µM	2.24 µM	3.97 µM	4.12 µM	23.1 µM	–	–	9.8 µM	35.7 µM	2.66 µM	5.45 µM	16.4 µM	36.1 µM	–	–	18 µM	31.9 µM	12 µM	25.9 µM
CCC[CH2][Sn]1([CH2]CCC)[O]C(=O)C(C(C)C)N=Cc2ccccc2[O]1 (configuration not stated)	0.307 µM	1.15 µM	0.547 µM	1.78 µM	0.345 µM	1.34 µM	–	–	0.182 µM	1.01 µM	0.878 µM	> 100 µM	0.52 µM	1.63 µM	0.462 µM	1.8 µM	0.6 µM	1.88 µM	1.07 µM	> 100 µM
O=C(Nc1ccc(Cl)cc1)c1cc(-c2ccc(F)cc2)c2sc(=O)[nH]c2n1	1.35 µM	2.85 µM	1.43 µM	2.96 µM	1.73 µM	10.1 µM	–	–	2.59 µM	17.2 µM	2.07 µM	5.71 µM	1.57 µM	5.41 µM	1.61 µM	3.89 µM	2.25 µM	10.9 µM	0.493 µM	2.13 µM
O=c1cccccc1NCCCNc1cccccc1=O	–	> 100 µM	–	> 100 µM	–	> 100 µM	–	> 100 µM	–	> 100 µM	–	> 100 µM	–	> 100 µM	–	> 100 µM	–	–	–	–
CC[O-].CC[O-].O=C1c2ccccc2C(=O)c2c(O)ccc([O-])c21.O=C1c2ccccc2C(=O)c2c(O)ccc([O-])c21.[Ti+4]	–	> 100 µM	–	> 100 µM	–	> 100 µM	–	> 100 µM	–	> 100 µM	–	> 100 µM	–	> 100 µM	–	> 100 µM	–	–	–	> 100 µM
O=C(O)CN(c1ccccc1)S(=O)(=O)c1ccccc1[N+](=O)[O-]	–	> 100 µM	–	–	–	> 100 µM	–	> 100 µM	–	> 100 µM	–	> 100 µM	–	> 100 µM	–	> 100 µM	–	–	–	> 100 µM
Clc1nc(Cl)c2ncn(Cc3cccc(COc4cccc(OCc5cccc(Cn6cnc7c(Cl)nc(Cl)nc76)c5)c4)c3)c2n1	74.8 µM	> 100 µM	–	–	39 µM	> 100 µM	4.61 µM	31.3 µM	> 100 µM	> 100 µM	> 100 µM	> 100 µM	> 100 µM	> 100 µM	66.4 µM	> 100 µM	17.9 µM	33.2 µM	9.76 µM	46.1 µM
CC12CCCC(O)C1CCC1=CC3(CCC12)SCCS3 (configuration not stated)	–	> 10 µM	–	–	–	> 10 µM	–	–	–	> 10 µM	–	–	–	> 10 µM	–	–	–	> 10 µM	–	> 10 µM
CC(O)C(NC(=O)C(Cc1ccccc1)NC(=O)C(NC(=O)C(CCCCN)NC(=O)C(Cc1c[nH]c2ccccc12)NC(=O)C(Cc1ccc(O)cc1)NC(=O)C(Cc1ccc(Cl)cc1)NC(=O)C(N)Cc1ccccc1)C(C)O)C(N)=O (configuration not stated) (H-F[Phe(4-Cl)]YWKTFT-NH2; configuration not given here)	–	41.3 µM	–	49 µM	–	41.5 µM	–	28.6 µM	–	–	–	42.3 µM	–	46.4 µM	–	37.5 µM	–	73.7 µM	–	–
CCN(CC)CCCC(C)Nc1c(C)cnc2cc(Cl)c(C)cc12 (configuration not stated)	10.8 µM	23 µM	2.56 µM	13.6 µM	11.7 µM	> 68 µM	3.19 µM	21.2 µM	15.3 µM	33.3 µM	6.83 µM	21.1 µM	23.2 µM	> 58 µM	17.5 µM	> 78.5 µM	–	–	3.92 µM	13.3 µM
O=C1NC(=O)c2ccc([N+](=O)[O-])c3cccc1c23	–	27 µM	–	23.9 µM	–	22.4 µM	–	–	–	62 µM	–	31.8 µM	–	50.9 µM	–	29.8 µM	–	52.3 µM	–	34.6 µM
NC(N)=NCCCn1c2c(c3ccccc3c1=O)C(=O)c1ccccc1-2	0.681 µM	3.29 µM	22.3 µM	45.6 µM	–	–	23.9 µM	81.3 µM	1.53 µM	9.45 µM	0.369 µM	2.14 µM	34.2 µM	> 100 µM	–	–	3.6 µM	15.8 µM	15.1 µM	29.5 µM
